Read-outs that look alike come from different tables or passages of the source.
Legend:
[1] = molecular target: MKK6 (Homo sapiens, UniProt P52564); assay: ICKP radiometric kinase assay; assay type: biochemical; conditions: read-out: % AR (% kinase activity remaining)
[2] = molecular target: ERK1 (Homo sapiens, UniProt P27361); assay: ICKP radiometric kinase assay; assay type: biochemical; conditions: read-out: % AR (% kinase activity remaining)
[3] = molecular target: ERK5 (Homo sapiens, UniProt Q13164); assay: ICKP radiometric kinase assay; assay type: biochemical; conditions: read-out: % AR (% kinase activity remaining)
[4] = molecular target: p38 beta (Homo sapiens, UniProt Q15759); assay: ICKP radiometric kinase assay; assay type: biochemical; conditions: read-out: % AR (% kinase activity remaining)
[5] = molecular target: ERK8 (Homo sapiens, UniProt Q8TD08); assay: ICKP radiometric kinase assay; assay type: biochemical; conditions: read-out: % AR (% kinase activity remaining)
Sequence of ERK8 (Q8TD08 whole entry): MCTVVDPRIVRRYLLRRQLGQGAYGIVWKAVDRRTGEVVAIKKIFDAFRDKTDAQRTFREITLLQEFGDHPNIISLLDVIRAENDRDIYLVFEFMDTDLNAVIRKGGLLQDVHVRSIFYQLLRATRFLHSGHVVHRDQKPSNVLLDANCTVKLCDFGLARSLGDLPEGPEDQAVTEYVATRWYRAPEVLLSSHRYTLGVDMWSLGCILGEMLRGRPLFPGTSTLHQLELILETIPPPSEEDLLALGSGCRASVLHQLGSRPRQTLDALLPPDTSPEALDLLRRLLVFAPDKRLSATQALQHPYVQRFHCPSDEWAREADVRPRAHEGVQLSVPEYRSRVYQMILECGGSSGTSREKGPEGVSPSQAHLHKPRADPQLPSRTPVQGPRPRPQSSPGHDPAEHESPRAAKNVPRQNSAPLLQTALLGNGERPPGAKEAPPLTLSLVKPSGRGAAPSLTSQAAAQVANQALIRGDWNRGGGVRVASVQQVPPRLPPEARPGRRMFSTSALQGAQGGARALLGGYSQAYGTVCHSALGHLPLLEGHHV

[6] = molecular target: PDK1 (Homo sapiens, UniProt O15530); assay: ICKP radiometric kinase assay; assay type: biochemical; conditions: read-out: % AR (% kinase activity remaining)
[7] = molecular target: PKB beta (Homo sapiens, UniProt P31751); assay: ICKP radiometric kinase assay; assay type: biochemical; conditions: read-out: % AR (% kinase activity remaining)
Sequence of PKB beta (P31751 whole entry): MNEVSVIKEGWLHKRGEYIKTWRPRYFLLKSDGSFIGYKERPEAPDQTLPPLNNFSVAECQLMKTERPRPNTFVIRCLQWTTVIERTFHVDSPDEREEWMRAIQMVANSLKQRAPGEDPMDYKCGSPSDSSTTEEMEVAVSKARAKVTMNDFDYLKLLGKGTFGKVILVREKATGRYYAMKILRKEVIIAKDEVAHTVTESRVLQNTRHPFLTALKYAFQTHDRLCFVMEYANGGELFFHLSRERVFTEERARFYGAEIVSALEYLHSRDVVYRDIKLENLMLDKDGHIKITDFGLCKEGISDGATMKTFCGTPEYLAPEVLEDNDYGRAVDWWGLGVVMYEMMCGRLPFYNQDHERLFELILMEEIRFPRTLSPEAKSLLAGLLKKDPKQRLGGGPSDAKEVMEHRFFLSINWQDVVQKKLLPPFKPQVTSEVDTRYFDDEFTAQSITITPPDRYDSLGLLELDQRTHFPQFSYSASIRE

[8] = molecular target: PKC gamma (Homo sapiens, UniProt P05129); assay: ICKP radiometric kinase assay; assay type: biochemical; conditions: read-out: % AR (% kinase activity remaining)
[9] = molecular target: MNK1 (Homo sapiens, UniProt Q9BUB5); assay: ICKP radiometric kinase assay; assay type: biochemical; conditions: read-out: % AR (% kinase activity remaining)
Sequence of MNK1 (Q9BUB5 whole entry): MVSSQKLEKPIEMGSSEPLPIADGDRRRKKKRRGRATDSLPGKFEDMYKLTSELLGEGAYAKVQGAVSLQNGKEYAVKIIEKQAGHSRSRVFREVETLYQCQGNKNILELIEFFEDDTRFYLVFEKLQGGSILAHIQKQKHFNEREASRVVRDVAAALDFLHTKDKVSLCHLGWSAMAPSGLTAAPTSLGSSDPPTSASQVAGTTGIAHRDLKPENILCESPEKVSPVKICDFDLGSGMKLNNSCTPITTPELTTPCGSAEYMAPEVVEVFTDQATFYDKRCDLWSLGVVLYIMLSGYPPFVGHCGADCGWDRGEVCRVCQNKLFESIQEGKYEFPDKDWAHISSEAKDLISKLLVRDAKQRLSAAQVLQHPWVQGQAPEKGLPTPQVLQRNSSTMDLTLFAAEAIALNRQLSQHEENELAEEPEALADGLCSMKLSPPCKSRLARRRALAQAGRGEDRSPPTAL

[10] = molecular target: MNK2 (Homo sapiens, UniProt Q9HBH9); assay: ICKP radiometric kinase assay; assay type: biochemical; conditions: read-out: % AR (% kinase activity remaining)
[11] = molecular target: MAPKAP-K3 (Homo sapiens, UniProt Q16644); assay: ICKP radiometric kinase assay; assay type: biochemical; conditions: read-out: % AR (% kinase activity remaining)
[12] = molecular target: PRAK (Homo sapiens, UniProt Q8IW41); assay: ICKP radiometric kinase assay; assay type: biochemical; conditions: read-out: % AR (% kinase activity remaining)
[13] = molecular target: GSK3 beta (Homo sapiens, UniProt P49841); assay: ICKP radiometric kinase assay; assay type: biochemical; conditions: read-out: % AR (% kinase activity remaining)
Sequence of GSK3 beta (P49841 whole entry): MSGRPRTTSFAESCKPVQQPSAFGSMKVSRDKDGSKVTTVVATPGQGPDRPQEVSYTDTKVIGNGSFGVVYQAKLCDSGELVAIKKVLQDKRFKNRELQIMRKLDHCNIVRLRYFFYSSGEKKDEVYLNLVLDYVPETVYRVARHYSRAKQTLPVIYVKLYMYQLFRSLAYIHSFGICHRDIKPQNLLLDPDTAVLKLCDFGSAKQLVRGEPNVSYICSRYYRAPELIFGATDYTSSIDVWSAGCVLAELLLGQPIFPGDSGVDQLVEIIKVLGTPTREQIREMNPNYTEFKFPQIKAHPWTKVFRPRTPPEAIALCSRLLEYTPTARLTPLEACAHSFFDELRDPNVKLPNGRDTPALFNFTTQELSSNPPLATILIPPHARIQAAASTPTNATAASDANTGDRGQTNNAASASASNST

[14] = molecular target: Aurora A (Homo sapiens, UniProt O14965); assay: ICKP radiometric kinase assay; assay type: biochemical; conditions: read-out: % AR (% kinase activity remaining)
[15] = molecular target: Aurora B (Homo sapiens, UniProt Q96GD4); assay: ICKP radiometric kinase assay; assay type: biochemical; conditions: read-out: % AR (% kinase activity remaining)
[16] = molecular target: MARK1 (Homo sapiens, UniProt Q9P0L2); assay: ICKP radiometric kinase assay; assay type: biochemical; conditions: read-out: % AR (% kinase activity remaining)
Sequence of MARK1 (Q9P0L2 whole entry): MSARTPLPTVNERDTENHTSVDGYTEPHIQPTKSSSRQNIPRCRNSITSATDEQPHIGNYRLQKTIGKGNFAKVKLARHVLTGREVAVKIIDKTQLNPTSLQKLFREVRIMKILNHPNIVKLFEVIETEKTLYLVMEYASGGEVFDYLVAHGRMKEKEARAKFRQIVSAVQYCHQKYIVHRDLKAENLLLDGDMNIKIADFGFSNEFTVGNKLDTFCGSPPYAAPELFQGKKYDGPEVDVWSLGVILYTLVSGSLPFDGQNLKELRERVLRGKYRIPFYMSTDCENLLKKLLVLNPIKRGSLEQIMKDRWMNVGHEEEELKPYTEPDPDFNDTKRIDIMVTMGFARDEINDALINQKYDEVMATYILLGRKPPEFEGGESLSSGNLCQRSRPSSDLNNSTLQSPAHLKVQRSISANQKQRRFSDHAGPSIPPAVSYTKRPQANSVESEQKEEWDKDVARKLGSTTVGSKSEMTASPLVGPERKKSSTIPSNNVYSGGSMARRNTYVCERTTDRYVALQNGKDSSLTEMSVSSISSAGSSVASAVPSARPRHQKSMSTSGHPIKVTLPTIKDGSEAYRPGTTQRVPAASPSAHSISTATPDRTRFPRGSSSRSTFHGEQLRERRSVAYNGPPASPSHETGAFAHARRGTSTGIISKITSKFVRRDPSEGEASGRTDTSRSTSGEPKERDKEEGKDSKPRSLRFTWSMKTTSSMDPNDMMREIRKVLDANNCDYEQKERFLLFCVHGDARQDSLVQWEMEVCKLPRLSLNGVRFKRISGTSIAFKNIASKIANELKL

[17] = molecular target: MARK3 (Homo sapiens, UniProt P27448); assay: ICKP radiometric kinase assay; assay type: biochemical; conditions: read-out: % AR (% kinase activity remaining)
[18] = molecular target: BRSK1 (Homo sapiens, UniProt Q8TDC3); assay: ICKP radiometric kinase assay; assay type: biochemical; conditions: read-out: % AR (% kinase activity remaining)
Sequence of BRSK1 (Q8TDC3 whole entry): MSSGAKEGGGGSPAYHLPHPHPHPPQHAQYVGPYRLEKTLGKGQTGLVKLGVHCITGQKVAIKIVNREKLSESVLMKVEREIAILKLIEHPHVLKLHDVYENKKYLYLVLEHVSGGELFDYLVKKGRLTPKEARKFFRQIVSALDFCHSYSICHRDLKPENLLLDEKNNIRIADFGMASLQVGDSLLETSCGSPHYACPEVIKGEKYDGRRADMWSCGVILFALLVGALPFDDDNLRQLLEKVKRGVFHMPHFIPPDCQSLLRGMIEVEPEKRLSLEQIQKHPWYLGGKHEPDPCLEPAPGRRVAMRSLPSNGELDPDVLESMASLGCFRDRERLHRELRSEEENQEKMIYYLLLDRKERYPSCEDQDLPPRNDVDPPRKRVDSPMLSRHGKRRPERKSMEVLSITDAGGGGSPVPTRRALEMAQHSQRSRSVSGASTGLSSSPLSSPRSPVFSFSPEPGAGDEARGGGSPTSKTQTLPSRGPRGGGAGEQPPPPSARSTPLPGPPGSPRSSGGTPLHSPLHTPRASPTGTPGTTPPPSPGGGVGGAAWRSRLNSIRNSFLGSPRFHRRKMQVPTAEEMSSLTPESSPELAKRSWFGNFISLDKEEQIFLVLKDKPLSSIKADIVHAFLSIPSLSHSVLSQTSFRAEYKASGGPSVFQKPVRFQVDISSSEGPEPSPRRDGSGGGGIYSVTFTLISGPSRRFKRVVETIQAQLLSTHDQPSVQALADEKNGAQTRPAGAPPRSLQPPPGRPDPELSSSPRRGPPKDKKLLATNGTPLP

[19] = molecular target: BRSK2 (Homo sapiens, UniProt Q8IWQ3); assay: ICKP radiometric kinase assay; assay type: biochemical; conditions: read-out: % AR (% kinase activity remaining)
[20] = molecular target: MELK (Homo sapiens, UniProt Q14680); assay: ICKP radiometric kinase assay; assay type: biochemical; conditions: for remaining activity at 1 µM: read-out: % AR (% kinase activity remaining)
Sequence of MELK (Q14680 whole entry): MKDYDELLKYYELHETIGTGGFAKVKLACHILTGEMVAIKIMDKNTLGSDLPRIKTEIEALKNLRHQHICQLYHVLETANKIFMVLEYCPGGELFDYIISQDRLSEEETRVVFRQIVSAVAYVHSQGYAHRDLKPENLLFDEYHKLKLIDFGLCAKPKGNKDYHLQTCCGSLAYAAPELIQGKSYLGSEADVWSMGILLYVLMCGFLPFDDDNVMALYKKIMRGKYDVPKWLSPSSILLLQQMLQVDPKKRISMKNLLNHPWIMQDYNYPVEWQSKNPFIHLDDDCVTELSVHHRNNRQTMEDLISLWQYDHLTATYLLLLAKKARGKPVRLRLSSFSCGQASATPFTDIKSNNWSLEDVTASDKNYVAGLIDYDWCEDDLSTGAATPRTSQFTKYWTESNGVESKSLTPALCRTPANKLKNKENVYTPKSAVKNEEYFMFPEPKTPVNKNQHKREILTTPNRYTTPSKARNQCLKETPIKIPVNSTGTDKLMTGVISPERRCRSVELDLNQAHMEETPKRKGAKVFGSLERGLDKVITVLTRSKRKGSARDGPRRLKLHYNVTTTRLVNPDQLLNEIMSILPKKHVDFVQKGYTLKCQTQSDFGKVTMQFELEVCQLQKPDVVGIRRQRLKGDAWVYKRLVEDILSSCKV

[21] = molecular target: CK1 delta (Homo sapiens, UniProt P48730); assay: ICKP radiometric kinase assay; assay type: biochemical; conditions: read-out: % AR (% kinase activity remaining)
[22] = molecular target: DYRK1A (Homo sapiens, UniProt Q13627); assay: ICKP radiometric kinase assay; assay type: biochemical; conditions: read-out: % AR (% kinase activity remaining)
[23] = molecular target: NEK6 (Homo sapiens, UniProt Q9HC98); assay: ICKP radiometric kinase assay; assay type: biochemical; conditions: read-out: % AR (% kinase activity remaining)
[24] = molecular target: PAK4 (Homo sapiens, UniProt O96013); assay: ICKP radiometric kinase assay; assay type: biochemical; conditions: read-out: % AR (% kinase activity remaining)
[25] = molecular target: PAK6 (Homo sapiens, UniProt Q9NQU5); assay: ICKP radiometric kinase assay; assay type: biochemical; conditions: read-out: % AR (% kinase activity remaining)
[26] = molecular target: MAP4K3 (Homo sapiens, UniProt Q8IVH8); assay: ICKP radiometric kinase assay; assay type: biochemical; conditions: read-out: % AR (% kinase activity remaining)
[27] = molecular target: MEKK1 (Homo sapiens, UniProt Q13233); assay: ICKP radiometric kinase assay; assay type: biochemical; conditions: read-out: % AR (% kinase activity remaining)
[28] = molecular target: OSR1 (Homo sapiens, UniProt O95747); assay: ICKP radiometric kinase assay; assay type: biochemical; conditions: read-out: % AR (% kinase activity remaining)
[29] = molecular target: WNK1 (Homo sapiens, UniProt Q9H4A3); assay: ICKP radiometric kinase assay; assay type: biochemical; conditions: read-out: % AR (% kinase activity remaining)
[30] = molecular target: CSK (Homo sapiens, UniProt P41240); assay: ICKP radiometric kinase assay; assay type: biochemical; conditions: read-out: % AR (% kinase activity remaining)
Sequence of CSK (P41240 whole entry): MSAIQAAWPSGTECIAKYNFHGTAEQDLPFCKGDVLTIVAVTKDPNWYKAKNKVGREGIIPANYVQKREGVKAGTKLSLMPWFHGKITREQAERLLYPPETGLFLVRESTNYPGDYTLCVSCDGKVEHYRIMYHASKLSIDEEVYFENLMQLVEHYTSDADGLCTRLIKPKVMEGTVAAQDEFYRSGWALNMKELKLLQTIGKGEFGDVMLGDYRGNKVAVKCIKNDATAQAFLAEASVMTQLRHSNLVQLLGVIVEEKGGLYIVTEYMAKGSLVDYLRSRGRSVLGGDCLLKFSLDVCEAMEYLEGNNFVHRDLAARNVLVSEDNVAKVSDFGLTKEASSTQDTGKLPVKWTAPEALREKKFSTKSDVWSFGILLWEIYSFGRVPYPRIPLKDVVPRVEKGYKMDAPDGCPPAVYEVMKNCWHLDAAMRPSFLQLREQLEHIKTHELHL

[31] = molecular target: ZAP70 (Homo sapiens, UniProt P43403); assay: ICKP radiometric kinase assay; assay type: biochemical; conditions: read-out: % AR (% kinase activity remaining)
[32] = molecular target: BRK (Homo sapiens, UniProt Q13882); assay: ICKP radiometric kinase assay; assay type: biochemical; conditions: read-out: % AR (% kinase activity remaining)
[33] = molecular target: EPH-B1 (Homo sapiens, UniProt P54762); assay: ICKP radiometric kinase assay; assay type: biochemical; conditions: read-out: % AR (% kinase activity remaining)
[34] = molecular target: EPH-B2 (Homo sapiens, UniProt P29323); assay: ICKP radiometric kinase assay; assay type: biochemical; conditions: read-out: % AR (% kinase activity remaining)
[35] = molecular target: EPH-B3 (Homo sapiens, UniProt P54753); assay: ICKP radiometric kinase assay; assay type: biochemical; conditions: read-out: % AR (% kinase activity remaining)
[36] = molecular target: IR (Homo sapiens, UniProt P06213); assay: ICKP radiometric kinase assay; assay type: biochemical; conditions: read-out: % AR (% kinase activity remaining)
[37] = molecular target: PINK (Tribolium castaneum, UniProt D6WMX4); assay: ICKP radiometric kinase assay; conditions: read-out: % AR (% kinase activity remaining)
[38] = system: MDA-MB-468; assay: Cell proliferation assay (CellTiter-Glo); conditions: Homo sapiens
[39] = system: BT-549; assay: Cell proliferation assay (CellTiter-Glo); conditions: Homo sapiens
[40] = system: HCC70; assay: Cell proliferation assay (CellTiter-Glo); conditions: Homo sapiens
[41] = system: T-47D; assay: Cell proliferation assay (CellTiter-Glo); conditions: Homo sapiens, T47D
[42] = MDA-MB-468, 72 h, read-out: 3-day antiproliferative IC50
[43] = MDA-MB-468, 168 h, read-out: 7-day antiproliferative IC50
[44] = BT-549, 72 h, read-out: 3-day antiproliferative IC50
[45] = BT-549, 168 h, read-out: 7-day antiproliferative IC50
[46] = HCC70, 72 h, read-out: 3-day antiproliferative IC50
[47] = HCC70, 168 h, read-out: 7-day antiproliferative IC50
[48] = 72 h, read-out: 3-day antiproliferative IC50
[49] = 168 h, read-out: 7-day antiproliferative IC50

Sequence of MKK6 (P52564 whole entry): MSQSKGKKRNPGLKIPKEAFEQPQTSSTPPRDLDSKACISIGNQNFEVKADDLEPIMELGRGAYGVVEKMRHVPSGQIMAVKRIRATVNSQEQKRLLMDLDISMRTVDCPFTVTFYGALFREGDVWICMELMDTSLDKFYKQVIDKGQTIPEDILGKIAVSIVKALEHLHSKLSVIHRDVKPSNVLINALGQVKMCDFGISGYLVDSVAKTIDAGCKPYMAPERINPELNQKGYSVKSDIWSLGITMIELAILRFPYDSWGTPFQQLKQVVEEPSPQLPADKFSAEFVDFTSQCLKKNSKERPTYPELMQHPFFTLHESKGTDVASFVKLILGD

## CN(C)C[C@H]1CC[C@H](N2C(=O)NCc3cnc4ccc(-c5cc(Cl)c(O)c(Cl)c5)cc4c32)CC1 [HTH-01-091, 9-(3,5-dichloro-4-hydroxyphenyl)-1-(trans-4-((dimethylamino)methyl)cyclohexyl)-3,4-dihydropyrimido[5,4 c]quinolin-2(1H)-one]
[1]
  remaining activity at 1 µM: 99%
[2]
  remaining activity at 1 µM: 119%
[3]
  remaining activity at 1 µM: 70%
[4]
  remaining activity at 1 µM: 85%
[5]
  remaining activity at 1 µM: 24%
[6]
  remaining activity at 1 µM: 102%
[7]
  remaining activity at 1 µM: 88%
[8]
  remaining activity at 1 µM: 71%
[9]
  remaining activity at 1 µM: 109%
[10]
  remaining activity at 1 µM: 103%
[11]
  remaining activity at 1 µM: 89%
[12]
  remaining activity at 1 µM: 78%
[13]
  remaining activity at 1 µM: 86%
[14]
  remaining activity at 1 µM: 98%
[15]
  remaining activity at 1 µM: 35%
[16]
  remaining activity at 1 µM: 97%
[17]
  remaining activity at 1 µM: 94%
[18]
  remaining activity at 1 µM: 85%
[19]
  remaining activity at 1 µM: 125%
[20]
  remaining activity at 1 µM: 13%
[20]; radioactive filter-binding assay provided by the ICKP, read-out: Enzymatic IC50 MELK
  IC50: 0.0153 µM
[21]
  remaining activity at 1 µM: 36%
[22]
  remaining activity at 1 µM: 23%
[23]
  remaining activity at 1 µM: 95%
[24]
  remaining activity at 1 µM: 79%
[25]
  remaining activity at 1 µM: 89%
[26]
  remaining activity at 1 µM: 55%
[27]
  remaining activity at 1 µM: 111%
[28]
  remaining activity at 1 µM: 93%
[29]
  remaining activity at 1 µM: 101%
[30]
  remaining activity at 1 µM: 76%
[31]
  remaining activity at 1 µM: 98%
[32]
  remaining activity at 1 µM: 96%
[33]
  remaining activity at 1 µM: 122%
[34]
  remaining activity at 1 µM: 70%
[35]
  remaining activity at 1 µM: 99%
[36]
  remaining activity at 1 µM: 100%
[37]
  remaining activity at 1 µM: 93%
[38]; [42]
  IC50: 4 µM
[38]; [43]
  IC50: 2.71 µM
[39]; [44]
  IC50: 6.16 µM
[39]; [45]
  IC50: 2.82 µM
[40]; [46]
  IC50: 8.8 µM
[40]; [47]
  IC50: 2.43 µM
[41]; [48]
  IC50: 3.87 µM
[41]; [49]
  IC50: 0.78 µM

## CC(=O)c1cnc2ccc(-c3cc(Cl)c(O)c(Cl)c3)nc2c1N[C@H]1CC[C@H](CN(C)C)CC1 [OTSSP167]
[1]
  remaining activity at 1 µM: 80%
[2]
  remaining activity at 1 µM: 88%
[3]
  remaining activity at 1 µM: 4%
[4]
  remaining activity at 1 µM: 6%
[5]
  remaining activity at 1 µM: 1%
[6]
  remaining activity at 1 µM: 4%
[7]
  remaining activity at 1 µM: 24%
[8]
  remaining activity at 1 µM: 1%
[9]
  remaining activity at 1 µM: 28%
[10]
  remaining activity at 1 µM: 13%
[11]
  remaining activity at 1 µM: 94%
[12]
  remaining activity at 1 µM: 16%
[13]
  remaining activity at 1 µM: 0%
[14]
  remaining activity at 1 µM: 10%
[15]
  remaining activity at 1 µM: 14%
[16]
  remaining activity at 1 µM: 31%
[17]
  remaining activity at 1 µM: 13%
[18]
  remaining activity at 1 µM: 2%
[19]
  remaining activity at 1 µM: 2%
[20]
  remaining activity at 1 µM: 6%
[21]
  remaining activity at 1 µM: 6%
[22]
  remaining activity at 1 µM: 1%
[23]
  remaining activity at 1 µM: 92%
[24]
  remaining activity at 1 µM: 9%
[25]
  remaining activity at 1 µM: 29%
[26]
  remaining activity at 1 µM: 1%
[27]
  remaining activity at 1 µM: 96%
[28]
  remaining activity at 1 µM: 45%
[29]
  remaining activity at 1 µM: 111%
[30]
  remaining activity at 1 µM: 9%
[31]
  remaining activity at 1 µM: 78%
[32]
  remaining activity at 1 µM: 8%
[33]
  remaining activity at 1 µM: 11%
[34]
  remaining activity at 1 µM: 1%
[35]
  remaining activity at 1 µM: 18%
[36]
  remaining activity at 1 µM: 2%
[37]
  remaining activity at 1 µM: 89%
[38]; [42]
  IC50: 0.014 µM
[38]; [43]
  IC50: 0.012 µM
[39]; [44]
  IC50: 0.021 µM
[39]; [45]
  IC50: 0.009 µM
[40]; [46]
  IC50: 0.034 µM
[40]; [47]
  IC50: 0.021 µM
[41]; [48]
  IC50: 0.106 µM
[41]; [49]
  IC50: 0.009 µM
